Experimental data as given in US5756505A, “N-acylpiperazine derivative, antibacterial drug and anti-ulcer drug” (Shiseido Co., Ltd., priority 1995, dated 1998).
Values after ≈ are worked out from the molar mass of the structure shown. Read-outs that look alike come from different tables or passages of the source.

Assays:
[1] = test system: gastric corpus mucosa cells; experiment: MTT: Cell Damaging and Protecting Effect Test; assay type: cell-based, rabbit (male Japanese White); details: final concentration 10^-4 M, 4 hours; smaller value is better; 100 µM
Excerpt: (§1) MTT: Cell Damaging and Protecting Effect Test
(§2) It is confirmed that there is no toxicity in cell level. Those having a toxicity in cell level are inappropriate as an anti-ulcer drug.
(§3) A male Japanese White rabbit (2.5 to 3 kg) was anesthetized to death by Nembutal™ and, immediately thereafter, its stomach was removed. The greater curvature of the stomach was incised so as to remove the stomach contents therefrom. After the mucosal surface was washed with HBSS (Hanks' Balanced Salt Solution), the stomach in ice-cooled HBSS was transferred to a laboratory. Then, after the pyloric antrum was removed, the gastric corpus mucosa was separated by a spatula and then minced into 2 to 3 mm^3 pieces in BME (Basal Medium Eagle). Thereafter, these pieces were shaken at 120 to 130 cycles/minute for 15 minutes at 37° C. in BME 60ml containig 280 U/ml of dispase and 30 to 50 U/ml of collagenase. Here, the concentration of collagenase was appropriately changed for each lot in view of the state of cells. The pieces were washed twice with EBSS (Earle's Balanced Salt Solution) containing 1 mM of EDTA and then shaken in MEM (Minimum Essential Medium) containing 1 mM of EDTA at 37° C. for 5 minutes. Subsequently, they were shaken in the dispase and collagenase having the same concentrations as those mentioned above for 15 minutes so as to remove the supernatant and then further shaken at 37° C. for 50 to 60 minutes at 120 to 130 cycles/minute. Then, after being washed twice with HBSS, Ham F12 containing 2% of Ultrocer G™ was used to attain the concentration of 1×10^6 cells/ml. Thus formed suspension was dispensed in each well of a 96-well plate by 200 μl. The plate was incubated in the atmosphere composed of 5% CO2 and 95% air at 37° C. for three days so as to attain a confluent state and then subjected to MTT assay.
(§4) The sample compound was dissolved in DMSO so as to attain a concentration of 10^-2 M and then diluted with HBSS containing 2% of Ultrocer G™ so as to attain a final concentration of 10^-4 M. To each group, which 8 wells were used for, 10 μl of MTT reagent were added immediately after 100 μl of the medium in each well were exchanged for same volume of the resulting solution of the sample compound. After being incubated in an atmosphere composed of 5% CO2 and 95% air at 37° C. for 4 hours, thus formed solution was centrifuged and then its supernatant was discarded. Subsequently, 100 μl of 100% ethanol were added to the residue so as to dissolve MTT formazan. Then, the absorbance (OD: 570 to 630) was measured by a microplate reader. This method utilizes a phenomenon in which MTT is changed to MTT formazan only by mitochondria of living cells so as to change color.
(§5) The cell damaging or cell protecting effect of the sample compound at the final concentration of 10^-4 M was expressed as cell damaging rate (%) as follows:
(§6) cell damaging rate (%)=[1-(absorbance in sample group/absorbance in control group)]×100
(§7) Accordingly, the smaller value is better in the cell damaging rate.

[2] = test system: gastric mucosa; experiment: PD: Gastric Mucosal Integrity Test; assay type: in vivo, rat (male Crj:SD); details: rat, 100 mg/kg into ex vivo chamber, 60 minutes
Procedure: PD: Gastric Mucosal Integrity Test
In this case, since the sample compound has a necrotizing effect, it is inappropriate as an anti-ulcer medicament.
Therefore, the gastric mucosal potential difference (PD), which reflects the integrity of the gastric mucosa, is measured so as to confirm that the sample compound has no damasing effect on gastric mucosa, which is toxicity at gastric mucosal level.
Male Crj:SD rats (7 to 8-week-old) was fasted overnight, but allowed free access to water, and then, under urethane anesthesia (1.25 g/kg, i.p.), fixed to a cork board on its back. The abdomen of each rat was incised, and a small incision was made in the forestomach. Then, the inside of the stomach was washed with physiological saline heated at 37° C. From the forestomach, along the greater curvature thereof, the stomach was incised without damaging blood vessels. After the height of the cork board was adjusted on a jack, the stomach was mounted on ex vivo chamber. The area of the gastric mucosa exposed to the inside of this chamber was 2.5 cm^2. The inside of the chamber was perfused with physiological saline warmed at 37° C. by micro tube pump. By using an agar bridge containing 3M KCl, the potential difference between the chamber and the abdominal cavity was measured by a PD meter. Here, the rectal temperature was measured to control the body temperature during the experiment. After the PD was sufficiently stabilized, the perfusate was stopped and then 100 mg/10 ml/kg of the sample compound dissolved or suspended in an aqueous solution of 0.5% sodium carboxymethyl cellulose or 0.05% Tween 80 were administered into the chamber, while PD was recorded for 60 minutes. To a control, the vehicle was administered.
The change in PD during 60 minutes after the administration of 100 mg/kg of the sample compound was collectively studied and, with reference to the positive control, classified into 5 levels as follows:
5: Same as the control with no recognizable damage at all.
3: Though a weak decrease in PD and a possibility of a weak mucosal damage is recognized, there is no substantial problem.
2: Medium degree of decrease in PD is found and a mucosal damage is recognized.
1: Heavy degree of decrease in PD is found and a remarkable mucosal damage is recognized.

[3] = MTT: Cell Damaging and Protecting Effect Test; assay type: cell-based, rabbit (male Japanese White); details: rabbit, gastric mucosal cells
Excerpt: as §1, §2, §3, §4, §5, §6, §7

[4] = test system: Helicobacter pyroli; experiment: AHP: Antibacterial Activity Test Against Helicobacter pyroli; assay type: cell-based, Helicobacter pyroli NCTC 11637; details: Helicobacter, NCTC11637, 168 h; H. pyroli NCTC 11637, agar dilution, 7 days; read-out: AHP: minimum inhibitory concentration (MIC)
Procedure: AHP: Antibacterial […] Against Helicobacter pyroli i)Meaning The minimum inhibitory concentration (MIC) against Helicobacter pyroli (microaerophilic gram-negative bacterium which is supposed to deeply involve in pathogenesis, relapse, and recrudescence of ulcer, referred to as "HP" in the following) is measured so as to find out compounds which have antimicrobial activity against Helicobacter pyroli. ii)Method MICs were determined by the agar dilution method. […] Grown colonies were transfered to the same plate and cultured for 3 days under the same condition. […] A 1,000 μg/ml solution of the sample compound containing DMSO not more than 25% was […] diluted 2-fold in sterile purified water. 100 μl volume from each dilution was mixed thoroughly with 900 μl of brucella agar supplemented with 5% horse blood and solidified in a 24 well micro plate. 10 μl of the bacterial suspension (about 10^3 cfu) was inoculated on this plate and cultured for 7 days under the same condition as that of preculture.

[5] = final concentration 10^-4 M, 4 hours, smaller value is better, read-out: MTT: cell damaging rate

Structure (SMILES)	MTT: cell damaging rate [1]	PD: change in gastric mucosal potential difference, level [2]	cytotoxicity at 4 h, 100 µM [3, 5]	MIC [4]	cytotoxicity at 4 h, 100 µM ([3]; MTT: cell damaging rate)
CC(C)Cc1cc(C(=O)N2CCN(CC(C)C)CC2)ccc1OCc1ccccc1F.Cl [Example 19, 1-[4-(2-fluorobenzyloxy)-3-isobutylbenzoyl]-4-isobutylpiperazine hydrochloride]	-55%	2			
CC(C)Cc1cc(CN2CCN(CC(C)C)CC2)ccc1OCc1ccc(F)cc1.Cl.Cl [Example 20, 1-[4-(4-fluorobenzyloxy)-3-isobutylbenzyl]-4-isobutylpiperazine dihydrochloride]		2	45%		
C=C(C)Cc1cc(C(=O)N2CCN(CC(C)C)CC2)ccc1OCc1ccc(F)cc1.Cl [Example 4, 1-[4-(4-fluorobenzyloxy)-3-methallylbenzoyl]-4-isobutylpiperazine hydrochloride]			-67%	25 µg/mL	
CC(C)Cc1cc(C(=O)N2CCN(CC(C)C)CC2)ccc1OCc1ccc(F)cc1F.Cl [Example 24, 1-[4-(2,4-difluorobenzyloxy)-3-isobutylbenzoyl]-4-isobutylpiperazine hydrochloride]	-126%	2		6.25 µg/mL	
CC(C)Cc1cc(C(=O)N2CCN(CC(C)C)CC2)ccc1OCc1ccc(F)cc1F [Example 27, 1-[4-(2,4-difluorobenzyloxy)-3-isobutylbenzoyl]-4-isobutylpiperazine]	-119%			6.25 µg/mL (≈ 14.1 µM)	
CC(C)Cc1cc(C(=O)N2CCN(CC(C)C)CC2)ccc1OCc1ccccc1 [Example 16, 1-(4-benzyloxy-3-isobutylbenzoyl)-4-isobutylpiperazine]		5	-98%	50 µg/mL (≈ 122 µM)	
CC(C)Cc1cc(C(=O)N2CCN(CC(C)C)CC2)ccc1OCc1ccc(F)c(F)c1 [Example 26, 1-[4-(3,4-difluorobenzyloxy)-3-isobutylbenzoyl]-4-isobutylpiperazine]	29%			12.5 µg/mL (≈ 28.1 µM)	
CC(C)Cc1cc(C(=O)N2CCN(C(=O)C(C)C)CC2)ccc1OCc1ccc(F)cc1 [Example 6, 1-[4-(4-fluorobenzyloxy)-3-isobutylbenzoyl]-4-isobutyrylpiperazine]			-29%	< 3.13 µg/mL	
CC(C)Cc1cc(C(=O)N2CCN(CC(C)C)CC2)ccc1OCc1ccc(Cl)cc1 [Example 17, 1-[4-(4-chlorobenzyloxy)-3-isobutylbenzoyl]-4-isobutylpiperazine]		4	-18%	12.5 µg/mL (≈ 28.2 µM)	
CC(C)Cc1cc(C(=O)N2CCN(CC(C)C)CC2)ccc1OCc1ccc(F)cc1.O=C(O)C(=O)O [Example 25, 1-[4-(4-fluorobenzyloxy)-3-isobutylbenzoyl]-4-isobutylpiperazine oxalate]	-28%			12.5 µg/mL	
CC(C)CN1CCN(C(=O)c2ccc(OCc3ccccc3)cc2)CC1 [Example 3, 1-(4-benzyloxybenzoyl)-4-isobutylpiperazine]		5	-16%		
CC(C)Cc1cc(C(=O)N2CCN(CC(C)C)CC2)ccc1OCc1ccc([N+](=O)[O-])cc1.Cl [Example 13, 1-isobutyl-4-[3-isobutyl-4-(4-nitrobenzyloxy)benzoyl]piperazine hydrochloride]		2	-66%	12.5 µg/mL	
COc1ccc(COc2ccc(C(=O)N3CCN(CC(C)C)CC3)cc2CC(C)C)cc1 [Example 14, 1-isobutyl-4-[3-isobutyl-4-(4-methoxybenzyloxy)benzoyl]piperazine]			11%	25 µg/mL (≈ 57 µM)	
CC(C)Cc1cc(CC(=O)N2CCN(CC(C)C)CC2)ccc1OCc1ccccc1 [Example 15, 1-(4-benzyloxy-3-isobutylphenylacetyl)-4-isobutylpiperazine]					-55%
CC(C)Cc1cc(C(=O)N2CCN(CC(C)C)CC2)ccc1OCc1ccc(F)c(F)c1.Cl [Example 23, 1-[4-(3,4-difluorobenzyloxy)-3-isobutylbenzoyl]-4-isobutylpiperazine hydrochloride]			28%	25 µg/mL	
CC(C)CN1CCN(C(=O)c2ccc(OCc3ccc(F)cc3)c([N+](=O)[O-])c2)CC1.Cl [Example 8, 1-[4-(4-fluorobenzyloxy)-3-nitrobenzoyl]-4-isobutylpiperazine hydrochloride]		2	-65%		
CC(C)Cc1cc(C(=O)N2CCN(CCO)CC2)ccc1OCc1ccc(F)cc1 [Example 9, 1-[4-(4-fluorobenzyloxy)-3-isobutylbenzoyl]-4-(2-hydroxyethyl)piperazine]		2	26%		
CC(C)CN1CCN(C(=O)c2ccc(OCc3ccc(F)cc3)cc2)CC1.Cl [Example 2, 1-[4-(4-fluorobenzyloxy)benzoyl]-4-isobutylpiperazine hydrochloride]	-6%	2			
Cc1cccc(COc2ccc(C(=O)N3CCN(CC(C)C)CC3)cc2CC(C)C)c1F.Cl [Example 12, 1-[4-(2-fluoro-3-methylbenzyloxy)-3-isobutylbenzoyl]-4-isobutylpiperazine hydrochloride]		2	-15%		
CC(C)CN1CCN(C(=O)c2ccc(OCc3ccc(F)cc3)cc2)CC1 [Example 5, 1-[4-(4-fluorobenzyloxy)benzoyl]-4-isobutylpiperazine]	-84%			12.5 µg/mL (≈ 33.7 µM)	
